Results reported in PubChem BioAssay (NCI).
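96-well plates; 48 h exposure; 5 concentrations. Endpoints by linear interpolation between flanking doses. Not reached: highest tested concentration assigned. Abbreviation: GI50, concentration required for 50% inhibition of growth. TGI denotes the concentration required for complete inhibition of growth.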

Experiments:
Experiment in all cases: NCI-60 cell line screen, 48 h
SK-MEL-28 melanoma = system: SK-MEL-28 melanoma
HCC-2998 colon = system: HCC-2998 colon
OVCAR-8 ovarian = system: OVCAR-8 ovarian
BT-549 breast = system: BT-549 breast
OVCAR-5 ovarian = system: OVCAR-5 ovarian
HOP-62 NSCLC = system: HOP-62 NSCLC
SF-295 CNS = system: SF-295 CNS
SF-268 CNS = system: SF-268 CNS
EKVX NSCLC = system: EKVX NSCLC
SNB-19 CNS = system: SNB-19 CNS

Structure (SMILES): CC(=O)CCc1ccc(OC2OC(COC(=O)c3cc(O)c(O)c(O)c3)C(O)C(O)C2OC(=O)/C=C/c2ccccc2)cc1 (stereo unspecified)
- GI50 (SK-MEL-28 melanoma): 19.4 µM
- TGI (SK-MEL-28 melanoma): 39.9 µM
- GI50 (HCC-2998 colon): 15.3 µM
- TGI (HCC-2998 colon): 30.2 µM
- GI50 (OVCAR-8 ovarian): 21.2 µM
- TGI (OVCAR-8 ovarian): 55 µM
- GI50 (BT-549 breast): 35.6 µM
- TGI (BT-549 breast): 64.6 µM
- GI50 (OVCAR-5 ovarian): 15.6 µM
- TGI (OVCAR-5 ovarian): 32.1 µM
- GI50 (HOP-62 NSCLC): 17.2 µM
- TGI (HOP-62 NSCLC): 33.8 µM
- GI50 (SF-295 CNS): 24500 nM
- TGI (SF-295 CNS): 52.2 µM
- GI50 (SF-268 CNS): 19.3 µM
- TGI (SF-268 CNS): 49.4 µM
- GI50 (EKVX NSCLC): 40.3 µM
- TGI (EKVX NSCLC): 72 µM
- GI50 (SNB-19 CNS): 18.4 µM
- TGI (SNB-19 CNS): 49.7 µM

Structure (SMILES): Cc1cc(NCCCNc2ccnc3cc(Cl)ccc23)nc(N2CCN(C)CC2)n1
- GI50 (SK-MEL-28 melanoma): 1.84 µM
- TGI (SK-MEL-28 melanoma): 3.67 µM
- GI50 (HCC-2998 colon): 2.36 µM
- TGI (HCC-2998 colon): 11.1 µM
- GI50 (OVCAR-8 ovarian): 7.76 µM
- TGI (OVCAR-8 ovarian): 44 µM
- GI50 (BT-549 breast): 13.1 µM
- TGI (BT-549 breast): 53.3 µM
- GI50 (OVCAR-5 ovarian): 11.6 µM
- TGI (OVCAR-5 ovarian): 43.2 µM
- GI50 (HOP-62 NSCLC): 4.79 µM
- TGI (HOP-62 NSCLC): 21 µM
- GI50 (SF-295 CNS): 3510 nM
- TGI (SF-295 CNS): 12.3 µM
- GI50 (SF-268 CNS): 6.74 µM
- TGI (SF-268 CNS): 26.3 µM
- GI50 (SNB-19 CNS): 12.5 µM
- TGI (SNB-19 CNS): 49.5 µM

Structure (SMILES): Cn1cc(C2=C(c3cn(CCO)c4ccccc34)C(=O)NC2=O)c2ccccc21
- GI50 (SK-MEL-28 melanoma): 3.76 µM
- TGI (SK-MEL-28 melanoma): 20.2 µM
- GI50 (HCC-2998 colon): 5.56 µM
- TGI (HCC-2998 colon): > 23.6 µM
- GI50 (OVCAR-8 ovarian): 5.48 µM
- TGI (OVCAR-8 ovarian): > 21.9 µM
- GI50 (BT-549 breast): 3.14 µM
- TGI (BT-549 breast): 11.9 µM
- GI50 (OVCAR-5 ovarian): 10.9 µM
- TGI (OVCAR-5 ovarian): > 25 µM
- GI50 (HOP-62 NSCLC): 3.36 µM
- TGI (HOP-62 NSCLC): > 16.6 µM
- GI50 (SF-295 CNS): 1180 nM
- TGI (SF-295 CNS): 7.58 µM
- GI50 (SF-268 CNS): 4.19 µM
- TGI (SF-268 CNS): 15.4 µM
- GI50 (SNB-19 CNS): 7.09 µM
- TGI (SNB-19 CNS): > 25 µM

Structure (SMILES): CN(Cc1ccc(Cl)cc1)c1ccc(CO)c(Cl)c1
- GI50 (SK-MEL-28 melanoma): 12.3 µM
- TGI (SK-MEL-28 melanoma): 25.1 µM
- GI50 (HCC-2998 colon): 9.36 µM
- TGI (HCC-2998 colon): 22.1 µM
- GI50 (OVCAR-8 ovarian): 7.05 µM
- TGI (OVCAR-8 ovarian): 27.4 µM
- GI50 (BT-549 breast): 5.31 µM
- TGI (BT-549 breast): 19.9 µM
- GI50 (OVCAR-5 ovarian): 0.644 µM
- TGI (OVCAR-5 ovarian): 4.67 µM
- GI50 (HOP-62 NSCLC): 5.75 µM
- TGI (HOP-62 NSCLC): 18.3 µM
- GI50 (SF-295 CNS): 2480 nM
- TGI (SF-295 CNS): 16 µM
- GI50 (SF-268 CNS): 14.2 µM
- TGI (SF-268 CNS): 29.5 µM
- GI50 (EKVX NSCLC): 13.5 µM
- TGI (EKVX NSCLC): 35.3 µM
- GI50 (SNB-19 CNS): 16.8 µM
- TGI (SNB-19 CNS): 51.6 µM

Structure (SMILES): O=C(Nc1ccc(F)cc1)Nc1ccccc1CNc1nc(Nc2ccc(OCCN3CCCC3)cc2)ncc1Cl
- GI50 (SK-MEL-28 melanoma): 0.899 µM
- TGI (SK-MEL-28 melanoma): 1.78 µM
- GI50 (HCC-2998 colon): 2.73 µM
- TGI (HCC-2998 colon): 9.27 µM
- GI50 (OVCAR-8 ovarian): 1.83 µM
- TGI (OVCAR-8 ovarian): 12.2 µM
- GI50 (BT-549 breast): 5.15 µM
- TGI (BT-549 breast): 11.2 µM
- GI50 (OVCAR-5 ovarian): 1.76 µM
- TGI (OVCAR-5 ovarian): 6.88 µM
- GI50 (HOP-62 NSCLC): 1.39 µM
- TGI (HOP-62 NSCLC): 4.21 µM
- GI50 (SF-295 CNS): 1970 nM
- TGI (SF-295 CNS): 7.67 µM
- GI50 (SF-268 CNS): 1.26 µM
- TGI (SF-268 CNS): 4.84 µM
- GI50 (EKVX NSCLC): 2.22 µM
- TGI (EKVX NSCLC): 9.82 µM
- GI50 (SNB-19 CNS): 3 µM
- TGI (SNB-19 CNS): 11.1 µM

Structure (SMILES): O=c1cc(-c2ccccc2)oc2cc(O)c(O)c(O)c12
- GI50 (SK-MEL-28 melanoma): 92.3 µM
- TGI (SK-MEL-28 melanoma): > 100 µM
- GI50 (HCC-2998 colon): 15 µM
- TGI (HCC-2998 colon): 37.9 µM
- GI50 (OVCAR-8 ovarian): 46.5 µM
- TGI (OVCAR-8 ovarian): > 100 µM
- GI50 (BT-549 breast): 13.6 µM
- TGI (BT-549 breast): 87.5 µM
- GI50 (OVCAR-5 ovarian): 30 µM
- TGI (OVCAR-5 ovarian): 88.5 µM
- GI50 (HOP-62 NSCLC): 9.49 µM
- TGI (HOP-62 NSCLC): 31.2 µM
- GI50 (SF-295 CNS): 11700 nM
- TGI (SF-295 CNS): 46.4 µM
- GI50 (SF-268 CNS): 4.55 µM
- TGI (SF-268 CNS): 29.6 µM
- GI50 (EKVX NSCLC): 18.9 µM
- TGI (EKVX NSCLC): 63.3 µM
- GI50 (SNB-19 CNS): 30 µM
- TGI (SNB-19 CNS): > 100 µM
